In patent US11014912B2, “Cyanopyrrolidine derivatives with activity as inhibitors of USP30” (MISSION THERAPEUTICS LIMITED, priority 2016, dated 2021) one finds IC50 data, which are given here for 39 compounds.

The structures appear in SMILES notation.

Sequence of USP30 (Q70CQ3 57-517): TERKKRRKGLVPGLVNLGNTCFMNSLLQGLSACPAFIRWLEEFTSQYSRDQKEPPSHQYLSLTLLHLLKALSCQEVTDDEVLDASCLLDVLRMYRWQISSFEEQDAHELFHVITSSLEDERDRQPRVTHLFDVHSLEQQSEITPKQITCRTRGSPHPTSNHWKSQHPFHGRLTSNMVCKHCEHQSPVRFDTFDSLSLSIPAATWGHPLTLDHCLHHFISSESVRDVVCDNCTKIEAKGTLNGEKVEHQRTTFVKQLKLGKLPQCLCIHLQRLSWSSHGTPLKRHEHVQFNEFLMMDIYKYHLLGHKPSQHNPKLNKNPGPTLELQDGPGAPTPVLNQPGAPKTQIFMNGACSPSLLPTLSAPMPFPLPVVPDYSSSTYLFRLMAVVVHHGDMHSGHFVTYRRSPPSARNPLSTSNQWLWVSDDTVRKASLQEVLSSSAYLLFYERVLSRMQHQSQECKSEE

The test addresses USP30 (Homo sapiens (Human), UniProt Q70CQ3). Description: USP30 biochemical IC50 assay. To be noted: fluorescence polarisation, TAMRA labelled peptide linked to ubiquitin substrate; enzyme and compound incubated 30 min at room temp; read after 2 h; read-out: IC50 range. Here is the method: USP30 Biochemical IC50 Assay
Dilution plates were prepared at 21 times the final concentration (2100 μM for a final concentration of 100 μM) in 50% DMSO in a 96-well polypropylene V-bottom plate (Greiner #651201). A typical 8-point dilution series would be 100, 30, 10, 3, 1, 0.3, 0.1, 0.03 μM final. Reactions were performed in duplicate in black 384 well plates (small volume, Greiner 784076) in a final reaction volume of 21 μl. Either 1 μl of 50% DMSO or diluted compound was added to the plate. USP30 was diluted in reaction buffer (40 mM Tris, pH 7.5, 0.005% Tween 20, 0.5 mg/ml BSA, 5 mM beta-mercaptoethanol) to the equivalent of 0.05 μl/well and 10 μl of diluted USP30 was added to the compound. Enzyme and compound were incubated for 30 min at room temp. Reactions were initiated by the addition of 50 nM of TAMRA labelled peptide linked to ubiquitin via an iso-peptide bond as fluorescence polarisation substrate. Reactions were read immediately after addition of substrate and following a 2 h incubation at room temperature. Readings were performed on a Pherastar Plus (BMG Labtech). A Excitation 540 nm; A Emission 590 nm.
A general note: In fluorescence polarisation assays a small probe gives low polarisation when free and higher when bound to something large.
`N#Cc1ccc(C2CN(C(=O)C[C@@H]3CCN(C#N)C3)C2)cc1` [Example 52, (S)-3-(2-(3-(4-cyanophenyl)azetidin-1-yl)-2-oxoethyl)pyrrolidine-1-carbonitrile]: the IC50 (usually the midpoint of a concentration-inhibition curve) fell in the range of 100 to 1000 nM. Consider `CN(Cc1cc(-c2ccccc2)on1)C(=O)C=C1CCN(C#N)C1` [Example 25, 2-(1-Cyanopyrrolidin-3-ylidene)-N-methyl-N-((5-phenylisoxazol-3-yl)methyl)acetamide], for which the IC50 lay in the range of 100 to 1000 nM.

In the case of `N#CN1CCC(CC(=O)Nc2nc3ccc(Cl)cc3s2)C1` (stereo not drawn) [Example 5, N-(6-Chlorobenzo[d]thiazol-2-yl)-2-(1-cyanopyrrolidin-3-yl)acetamide], the IC50 lay in the range of 100 to 1000 nM. Under `N#CN1CC[C@H](CC(=O)Nc2cc(-c3cccc(OC(F)(F)F)c3)no2)C1` [Example 54, (R)-2-(1-cyanopyrrolidin-3-yl)-N-(3-(3-(trifluoromethoxy)phenyl)isoxazol-5-yl)acetamide] stands 1 to 10 nM; under `N#Cc1ccc(C2CN(C(=O)C[C@@H]3CCN(C#N)C3)C2)nc1` [Example 57, (S)-6-(1-(2-(1-cyanopyrrolidin-3-yl)acetyl)azetidin-3-yl)nicotinonitrile], 100 to 1000 nM. Turning to `N#CN1CCC(=CC(=O)Nc2cnc3ccccc3c2)C1` [Example 23, 2-(1-Cyanopyrrolidin-3-ylidene)-N-(quinolin-3-yl)acetamide], the concentration for half-maximal inhibition (IC50) was 100 to 1000 nM. The same measure for `COc1ccc(C2CN(C(=O)CC3CCN(C#N)C3)C2)cc1` (stereo not drawn) [Example 1, 3-(2-(3-(4-Methoxyphenyl)azetidin-1-yl)-2-oxoethyl)pyrrolidine-1-carbonitrile]: 100 to 1000 nM; for `N#CN1CCC(CC(=O)N2CC(c3ccc(O)cc3)C2)C1` (stereo not drawn) [Example 58, 3-(2-(3-(4-hydroxyphenyl)azetidin-1-yl)-2-oxoethyl)pyrrolidine-1-carbonitrile]: 100 to 1000 nM. The same measure for `CN(C(=O)C=C1CCN(C#N)C1)c1nc2ccccc2s1` [Example 32, N-(Benzo[d]thiazol-2-yl)-2-(1-cyanopyrrolidin-3-ylidene)-N-methylacetamide]: 100 to 1000 nM; for `N#CN1CCC(CC(=O)Nc2cc(-c3ccccc3)no2)C1` (stereo not drawn) [Example 6, 2-(1-Cyanopyrrolidin-3-yl)-N-(3-phenylisoxazol-5-yl)acetamide]: 100 to 1000 nM. As to `CC(C(=O)N1CC(c2ccc(C#N)cc2)C1)[C@@H]1CCN(C#N)C1` (single isomer, unassigned) [Example 61], the IC50 lay within 1000 to 10000 nM. Under `CC(C)Oc1ccc(C2CN(C(=O)C[C@@H]3CCN(C#N)C3)C2)nc1` [Example 65, (S)-3-(2-(3-(5-isopropoxypyridin-2-yl)azetidin-1-yl)-2-oxoethyl)pyrrolidine-1-carbonitrile] stands 100 to 1000 nM; under `N#Cc1ccc(NC(=O)CC2CCN(C#N)C2)nc1` (stereo not drawn) [Example 46, N-(5-cyanopyridin-2-yl)-2-(1-cyanopyrrolidin-3-yl)acetamide], 1000 to 10000 nM; under `N#CN1CCC(CC(=O)Nc2ccc(C(F)(F)F)nc2)C1` (stereo not drawn) [Example 4, 2-(1-Cyanopyrrolidin-3-yl)-N-(6-(trifluoromethyl)pyridin-3-yl)acetamide], 1000 to 10000 nM.

`N#CN1CC[C@@H](CC(=O)Nc2cc(-c3ccc(Cl)cc3)no2)C1` [Example 34, (S)—N-(3-(4-Chlorophenyl)isoxazol-5-yl)-2-(1-cyanopyrrolidin-3-yl)acetamide]: the IC50 was in the range of 100 to 1000 nM. Under `CN(C)C(=O)c1ccc(C2CN(C(=O)C[C@@H]3CCN(C#N)C3)C2)cc1` [Example 60, (S)-4-(1-(2-(1-cyanopyrrolidin-3-yl)acetyl)azetidin-3-yl)-N,N-dimethylbenzamide] stands 100 to 1000 nM; under `Cc1noc(C)c1-c1ccc2nc(NC(=O)CC3CCN(C#N)C3)cn2c1` (stereo not drawn) [Example 16, 2-(1-Cyanopyrrolidin-3-yl)-N-(6-(3,5-dimethylisoxazol-4-yl)imidazo[1,2-a]pyridin-2-yl)acetamide], 1000 to 10000 nM; under `COc1ccc(C2CN(C(=O)C=C3CCN(C#N)C3)C2)cc1` [Example 17, 3-(2-(3-(4-Methoxyphenyl)azetidin-1-yl)-2-oxoethylidene)pyrrolidine-1-carbonitrile], 100 to 1000 nM.

`COCCOc1ccc(C2CN(C(=O)C[C@@H]3CCN(C#N)C3)C2)cc1` [Example 66, (S)-3-(2-(3-(4-(2-methoxyethoxy)phenyl)azetidin-1-yl)-2-oxoethyl)pyrrolidine-1-carbonitrile]: the IC50 is 1000 to 10000 nM. With `CC(C(=O)N1CC(c2ccc(C#N)cc2)C1)[C@@H]1CCN(C#N)C1` (single isomer, unassigned) [Example 62], the IC50 was in the range of 100 to 1000 nM. As for `CN(Cc1ccc(Cl)c(Cl)c1)C(=O)C=C1CCN(C#N)C1` [Example 33, 2-(1-Cyanopyrrolidin-3-ylidene)-N-(3,4-dichlorobenzyl)-N-methylacetamide], the IC50 is 100 to 1000 nM. Under `N#CN1CC[C@H](CC(=O)Nc2nnc(-c3ccccc3)s2)C1` [Example 63, (R)-2-(1-cyanopyrrolidin-3-yl)-N-(5-phenyl-1,3,4-thiadiazol-2-yl)acetamide] stands 1000 to 10000 nM; under `N#Cc1cccc(-c2nnc(NC(=O)CC3CCN(C#N)C3)o2)c1` (stereo not drawn) [Example 49, N-(5-(3-cyanophenyl)-1,3,4-oxadiazol-2-yl)-2-(1-cyanopyrrolidin-3-yl)acetamide], 100 to 1000 nM; under `N#CN1CCC(CC(=O)Nc2cc3ccccn3n2)C1` (stereo not drawn) [Example 44, 2-(1-cyanopyrrolidin-3-yl)-N-(pyrazolo[1,5-a]pyridin-2-yl)acetamide], 1000 to 10000 nM.

As for `N#CN1CCC(CC(=O)Nc2nnc(-c3ccccc3)s2)C1` (stereo not drawn) [Example 41, 2-(1-cyanopyrrolidin-3-yl)-N-(5-phenyl-1,3,4-thiadiazol-2-yl)acetamide], the IC50 was in the range of 100 to 1000 nM.

On to `N#CN1CCC(=CC(=O)Nc2ccc(Cl)c(C(F)(F)F)c2)C1` [Example 20, N-(4-Chloro-3-(trifluoromethyl)phenyl)-2-(1-cyanopyrrolidin-3-ylidene)acetamide], for which the IC50 was 100 to 1000 nM. Regarding `N#Cc1cccc(C2CN(C(=O)C[C@@H]3CCN(C#N)C3)C2)c1` [Example 56, (S)-3-(2-(3-(3-cyanophenyl)azetidin-1-yl)-2-oxoethyl)pyrrolidine-1-carbonitrile], the IC50 fell in the range of 100 to 1000 nM. Under `COc1ccc(C2CN(C(=O)C[C@@H]3CCN(C#N)C3)C2)cc1` [Example 38, (S)-3-(2-(3-(4-Methoxyphenyl)azetidin-1-yl)-2-oxoethyl)pyrrolidine-1-carbonitrile] stands 10 to 100 nM; under `N#Cc1cccc(-c2cc(NC(=O)C[C@H]3CCN(C#N)C3)no2)c1` [Example 55, (R)-N-(5-(3-cyanophenyl)isoxazol-3-yl)-2-(1-cyanopyrrolidin-3-yl)acetamide], 1 to 10 nM; under `COc1ccc(C2CN(C(=O)C[C@@H]3CCN(C#N)C3)C2)cc1-c1cnn(C)c1` [Example 67, (S)-3-(2-(3-(4-methoxy-3-(1-methyl-1H-pyrazol-4-yl)phenyl)azetidin-1-yl)-2-oxoethyl)pyrrolidine-1-carbonitrile], 10 to 100 nM. The same measure for `COc1ccc2nc(NC(=O)CC3CCN(C#N)C3)sc2c1` (stereo not drawn) [Example 3, 2-(1-Cyanopyrrolidin-3-yl)-N-(6-methoxybenzo[d]thiazol-2-yl)acetamide]: 100 to 1000 nM. Regarding `N#CN1CCC(CC(=O)Nc2ccc(Cl)c(Cl)c2)C1` (stereo not drawn) [Example 9, 2-(1-Cyanopyrrolidin-3-yl)-N-(3,4-dichlorophenyl)acetamide], the IC50 lay in the range of 100 to 1000 nM. On to `C[C@@H](C(=O)Nc1cc(-c2cccc(Cl)c2)no1)[C@@H]1CCN(C#N)C1` [Example 53, (R)-N-(3-(3-chlorophenyl)isoxazol-5-yl)-2-((S)-1-cyanopyrrolidin-3-yl)propanamide], for which the IC50 was in the range of 10 to 100 nM.

As to `N#CN1CC[C@H](CC(=O)Nc2cc(-c3cccc(Cl)c3)no2)C1` [Example 36, (R)—N-(3-(3-Chlorophenyl)isoxazol-5-yl)-2-(1-cyanopyrrolidin-3-yl)acetamide], the IC50 was in the range of 1 to 10 nM. Turning to `CN(Cc1ccc(N2CCCC2)cc1)C(=O)C=C1CCN(C#N)C1` [Example 28, 2-(1-Cyanopyrrolidin-3-ylidene)-N-methyl-N-(4-(pyrrolidin-1-yl)benzyl)acetamide], the IC50 was 100 to 1000 nM. Under `N#CN1CCC(CC(=O)N2CC(Oc3ccccc3)C2)C1` (stereo not drawn) [Example 12, 3-(2-Oxo-2-(3-phenoxyazetidin-1-yl)ethyl)pyrrolidine-1-carbonitrile] stands 100 to 1000 nM; under `COc1cccc(C2CN(C(=O)CC3CCN(C#N)C3)C2)c1` (stereo not drawn) [Example 13, 3-(2-(3-(3-Methoxyphenyl)azetidin-1-yl)-2-oxoethyl)pyrrolidine-1-carbonitrile], 100 to 1000 nM; under `N#Cc1cccc(-c2cc(NC(=O)C[C@H]3CCN(C#N)C3)on2)c1` [Example 51, (R)-N-(3-(3-cyanophenyl)isoxazol-5-yl)-2-(1-cyanopyrrolidin-3-yl)acetamide], 1 to 10 nM.

As to `COc1ccc(C2CN(C(=O)C[C@@H]3CCN(C#N)C3)C2)cc1-c1ccnn1C` [Example 40, (S)-3-(2-(3-(4-Methoxy-3-(1-methyl-1H-pyrazol-5-yl)phenyl)azetidin-1-yl)-2-oxoethyl)-pyrrolidine-1-carbonitrile], the IC50 lay in the range of 10 to 100 nM.
